Assay results as given in PubChem BioAssay AID272 (DTP/NCI, 2004).
Values joined by “and” are separate entries in the source; they are usually repeats but may differ in a detail not shown here. Identical values can stand only once. Inconclusive results are not listed.

Tested on: Lewis lung carcinoma i.m., BDF1 mice, T/C %
Assay: NCI In Vivo Anticancer Drug Screen. Data for tumor model Lewis Lung Carcinoma (intramuscular) in B6D2F1 (BDF1) mice
Summary of the method: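 Antitumour activity is assessed in transplanted-tumour mice. Endpoint is survival or tumour size, normalised to vehicle-dosed controls (T/C).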

[1] = endpoint: median survival time, dose: 6.25 mg/kg/injection, schedule: Q01DX011 (ip), vehicle: saline, higher = longer survival

COc1c(C)c2c(c(O)c1C/C=C(\C)CCC(=O)O)C(=O)OC2
T/C (endpoint: mean tumor weight (est.), dose: 25.0 mg/kg/injection, schedule: Q01DX011 (ip), vehicle: saline with Tween-80, higher = larger tumour): 98 % of control
T/C (endpoint: mean tumor weight (est.), dose: 50.0 mg/kg/injection, schedule: Q01DX011 (ip), vehicle: saline with Tween-80, higher = larger tumour): 71 % of control
T/C (endpoint: mean tumor weight (est.), dose: 100.0 mg/kg/injection, schedule: Q01DX011 (ip), vehicle: saline with Tween-80, higher = larger tumour): 57 % of control
T/C (endpoint: mean tumor weight (est.), dose: 200.0 mg/kg/injection, schedule: Q01DX011 (ip), vehicle: saline with Tween-80, higher = larger tumour): 27 % of control
T/C (endpoint: median survival time, dose: 25.0 mg/kg/injection, schedule: Q01DX011 (ip), vehicle: saline with Tween-80, higher = longer survival): 97 % of control
T/C (endpoint: median survival time, dose: 50.0 mg/kg/injection, schedule: Q01DX011 (ip), vehicle: saline with Tween-80, higher = longer survival): 106 % of control
T/C (endpoint: median survival time, dose: 100.0 mg/kg/injection, schedule: Q01DX011 (ip), vehicle: saline with Tween-80, higher = longer survival): 100 % of control

NC(C(=O)O)C(F)(F)C(=O)O (stereo not drawn)
T/C (endpoint: median survival time, dose: 3.12 mg/kg/injection, schedule: Q01DX011 (ip), vehicle: saline, higher = longer survival): 109 % of control
T/C [1]: 100 % of control
T/C (endpoint: median survival time, dose: 12.5 mg/kg/injection, schedule: Q01DX011 (ip), vehicle: saline, higher = longer survival): 104 % of control

O=S(=O)(O)SCCNCCCCCC1CCCCC1
T/C (endpoint: mean tumor weight (est.), dose: 0.75 mg/kg/injection, schedule: Q01DX011 (ip), vehicle: saline, higher = larger tumour): 78 % of control
T/C (endpoint: mean tumor weight (est.), dose: 1.5 mg/kg/injection, schedule: Q01DX011 (ip), vehicle: saline, higher = larger tumour): 80 % of control
T/C (endpoint: mean tumor weight (est.), dose: 3.0 mg/kg/injection, schedule: Q01DX011 (ip), vehicle: saline, higher = larger tumour): 88 % of control
T/C (endpoint: mean tumor weight (est.), dose: 6.0 mg/kg/injection, schedule: Q01DX011 (ip), vehicle: saline, higher = larger tumour): 100 % of control
T/C (endpoint: median survival time, dose: 0.75 mg/kg/injection, schedule: Q01DX011 (ip), vehicle: saline, higher = longer survival): 94 % of control
T/C (endpoint: median survival time, dose: 1.5 mg/kg/injection, schedule: Q01DX011 (ip), vehicle: saline, higher = longer survival): 111 % of control
T/C (endpoint: median survival time, dose: 3.0 mg/kg/injection, schedule: Q01DX011 (ip), vehicle: saline, higher = longer survival): 107 % of control
T/C (endpoint: median survival time, dose: 6.0 mg/kg/injection, schedule: Q01DX011 (ip), vehicle: saline, higher = longer survival): 96 % of control

[N-]=[N+]=CC(=O)CCC(N)C(=O)O (stereo not drawn)
T/C (endpoint: mean tumor weight, dose: 7.5 micrograms/kg/injection, schedule: Q01DX011 (ip), vehicle: saline, higher = larger tumour): 107 % of control
T/C (endpoint: mean tumor weight, dose: 15.0 micrograms/kg/injection, schedule: Q01DX011 (ip), vehicle: saline, higher = larger tumour): 77 % of control
T/C (endpoint: mean tumor weight, dose: 30.0 micrograms/kg/injection, schedule: Q01DX011 (ip), vehicle: saline, higher = larger tumour): 75 % of control
T/C (endpoint: mean tumor weight, dose: 60.0 micrograms/kg/injection, schedule: Q01DX011 (ip), vehicle: saline, higher = larger tumour): 102 % of control
T/C (endpoint: median survival time, dose: 7.5 micrograms/kg/injection, schedule: Q01DX011 (ip), vehicle: saline, higher = longer survival): 114 % of control
T/C (endpoint: median survival time, dose: 30.0 micrograms/kg/injection, schedule: Q01DX011 (ip), vehicle: saline, higher = longer survival): 90 % of control
T/C (endpoint: median survival time, dose: 60.0 micrograms/kg/injection, schedule: Q01DX011 (ip), vehicle: saline, higher = longer survival): 90 % of control

C[N+](C)(C)c1cc2c(nn1)Nc1ccccc1S2
T/C (endpoint: mean tumor weight (est.), dose: 1.06 mg/kg/injection, schedule: Q01DX011 (ip), vehicle: saline, higher = larger tumour): 83 % of control
T/C (endpoint: mean tumor weight (est.), dose: 2.12 mg/kg/injection, schedule: Q01DX011 (ip), vehicle: saline, higher = larger tumour): 88 % of control
T/C (endpoint: mean tumor weight (est.), dose: 4.25 mg/kg/injection, schedule: Q01DX011 (ip), vehicle: saline, higher = larger tumour): 69 % of control
T/C (endpoint: mean tumor weight (est.), dose: 8.5 mg/kg/injection, schedule: Q01DX011 (ip), vehicle: saline, higher = larger tumour): 110 % of control
T/C (endpoint: median survival time, dose: 1.06 mg/kg/injection, schedule: Q01DX011 (ip), vehicle: saline, higher = longer survival): 103 % of control
T/C (endpoint: median survival time, dose: 2.12 mg/kg/injection, schedule: Q01DX011 (ip), vehicle: saline, higher = longer survival): 100 % of control
T/C (endpoint: median survival time, dose: 4.25 mg/kg/injection, schedule: Q01DX011 (ip), vehicle: saline, higher = longer survival): 105 % of control
T/C (endpoint: median survival time, dose: 8.5 mg/kg/injection, schedule: Q01DX011 (ip), vehicle: saline, higher = longer survival): 96 % of control

COc1cccc2c1C(=O)c1c(O)c3c(c(O)c1C2=O)C[C@@](O)(C(=O)CO)C[C@@H]3OC1CC(N)C(O)C(C)O1 (stereo partly drawn)
T/C (endpoint: median survival time, dose: 0.25 mg/kg/injection, schedule: Q01DX011 (ip), vehicle: water, higher = longer survival): 100 % of control and 120 % of control
T/C (endpoint: median survival time, dose: 0.65 mg/kg/injection, schedule: Q03HX008 (ip), vehicle: water, higher = longer survival): 100 % of control and 102 % of control
T/C (endpoint: median survival time, dose: 1.08 mg/kg/injection, schedule: Q03HX008 (ip), vehicle: water, higher = longer survival): 123 % of control
T/C (endpoint: median survival time, dose: 1.8 mg/kg/injection, schedule: Q03HX008 (ip), vehicle: water, higher = longer survival): 26 % of control
T/C (endpoint: median survival time, dose: 3.0 mg/kg/injection, schedule: Q03HX008 (ip), vehicle: water, higher = longer survival): 17 % of control

Cc1nc(N)sc1CCCl
T/C (endpoint: mean tumor weight (est.), dose: 10.0 mg/kg/injection, schedule: Q01DX011 (ip), vehicle: saline, higher = larger tumour): 86 % of control
T/C (endpoint: mean tumor weight (est.), dose: 20.0 mg/kg/injection, schedule: Q01DX011 (ip), vehicle: saline, higher = larger tumour): 105 % of control
T/C (endpoint: mean tumor weight (est.), dose: 40.0 mg/kg/injection, schedule: Q01DX011 (ip), vehicle: saline, higher = larger tumour): 91 % of control
T/C (endpoint: median survival time, dose: 10.0 mg/kg/injection, schedule: Q01DX011 (ip), vehicle: saline, higher = longer survival): 98 % of control
T/C (endpoint: median survival time, dose: 20.0 mg/kg/injection, schedule: Q01DX011 (ip), vehicle: saline, higher = longer survival): 104 % of control
T/C (endpoint: median survival time, dose: 40.0 mg/kg/injection, schedule: Q01DX011 (ip), vehicle: saline, higher = longer survival): 104 % of control

O=NN(CCCl)C(=O)NCc1ccc(-c2ccc(CNC(=O)N(CCCl)N=O)cc2)cc1
T/C (endpoint: median survival time, dose: 108.0 mg/kg/injection, schedule: Q07DX003 (ip), vehicle: Klucel (hydroxypropylcellulose) (HPC), higher = longer survival): 104 % of control
T/C (endpoint: median survival time, dose: 180.0 mg/kg/injection, schedule: Q07DX003 (ip), vehicle: Klucel (hydroxypropylcellulose) (HPC), higher = longer survival): 93 % of control

CCCCCCCCCCCC[N+](C)(C)C (tested in a mixture with another compound)
T/C [1]: 110 % of control

CCN1/C(=C/C=C/c2oc3ccccc3[n+]2CC)Oc2ccccc21
T/C (endpoint: mean tumor weight (est.), dose: 3.7 micrograms/kg/injection, schedule: Q01DX011 (ip), vehicle: saline, higher = larger tumour): 87 % of control
T/C (endpoint: mean tumor weight (est.), dose: 75.0 micrograms/kg/injection, schedule: Q01DX011 (ip), vehicle: saline, higher = larger tumour): 99 % of control
T/C (endpoint: mean tumor weight (est.), dose: 150.0 micrograms/kg/injection, schedule: Q01DX011 (ip), vehicle: saline, higher = larger tumour): 103 % of control
T/C (endpoint: mean tumor weight (est.), dose: 300.0 micrograms/kg/injection, schedule: Q01DX011 (ip), vehicle: saline, higher = larger tumour): 86 % of control
T/C (endpoint: median survival time, dose: 37.5 micrograms/kg/injection, schedule: Q01DX011 (ip), vehicle: saline, higher = longer survival): 93 % of control
T/C (endpoint: median survival time, dose: 300.0 micrograms/kg/injection, schedule: Q01DX011 (ip), vehicle: saline, higher = longer survival): 87 % of control

CC(=O)NC(CS)C(=O)O (stereo not drawn)
T/C (endpoint: mean tumor weight (est.), dose: 750.0 mg/kg/injection, schedule: Q01DX009 (ip), vehicle: saline, higher = larger tumour): 91 % of control
T/C (endpoint: mean tumor weight (est.), dose: 1500.0 mg/kg/injection, schedule: Q01DX009 (ip), vehicle: saline, higher = larger tumour): 86 % of control

Nc1nc(=S)c2[nH]cnc2[nH]1
T/C (endpoint: mean tumor weight, dose: 0.12 mg/kg/injection, schedule: Q01DX011 (ip), vehicle: other, higher = larger tumour): 105 % of control
T/C (endpoint: mean tumor weight, dose: 0.25 mg/kg/injection, schedule: Q01DX011 (ip), vehicle: other, higher = larger tumour): 93 % of control
T/C (endpoint: mean tumor weight, dose: 0.5 mg/kg/injection, schedule: Q01DX011 (ip), vehicle: other, higher = larger tumour): 76 % of control
T/C (endpoint: median survival time, dose: 0.12 mg/kg/injection, schedule: Q01DX011 (ip), vehicle: other, higher = longer survival): 97 % of control and 106 % of control
T/C (endpoint: median survival time, dose: 0.25 mg/kg/injection, schedule: Q01DX011 (ip), vehicle: other, higher = longer survival): 116 % of control and 121 % of control
T/C (endpoint: median survival time, dose: 0.5 mg/kg/injection, schedule: Q01DX011 (ip), vehicle: other, higher = longer survival): 116 % of control

O=NN(CCCl)C(=O)NC1CCCCC1
T/C (endpoint: mean tumor weight, dose: 23.0 mg/kg/injection, schedule: Q01DX001 (sc), vehicle: saline, higher = larger tumour): 61 % of control
T/C (endpoint: mean tumor weight, dose: 39.0 mg/kg/injection, schedule: Q01DX001 (sc), vehicle: saline, higher = larger tumour): 40 % of control
T/C (endpoint: mean tumor weight, dose: 65.0 mg/kg/injection, schedule: Q01DX001 (sc), vehicle: saline, higher = larger tumour): 30 % of control
T/C (endpoint: mean tumor weight, dose: 108.0 mg/kg/injection, schedule: Q01DX001 (sc), vehicle: saline, higher = larger tumour): 30 % of control
T/C (endpoint: median survival time, dose: 4.0 mg/kg/injection, schedule: Q01DX011 (ip), vehicle: saline + alcohol, higher = longer survival): 92 % of control
T/C (endpoint: median survival time, dose: 4.0 mg/kg/injection, schedule: Q01DX011 (ip), vehicle: saline with Tween-80, higher = longer survival): 105 % of control
T/C (endpoint: median survival time, dose: 8.0 mg/kg/injection, schedule: Q01DX011 (ip), vehicle: saline + alcohol, higher = longer survival): 92 % of control
T/C (endpoint: median survival time, dose: 14.0 mg/kg/injection, schedule: Q01DX001 (ip), vehicle: saline, higher = longer survival): 108 % of control
T/C (endpoint: median survival time, dose: 16.0 mg/kg/injection, schedule: Q01DX012 (ip), vehicle: saline + alcohol, higher = longer survival): 87 % of control
T/C (endpoint: median survival time, dose: 23.0 mg/kg/injection, schedule: Q01DX001 (ip), vehicle: saline, higher = longer survival): 121 % of control
T/C (endpoint: median survival time, dose: 23.0 mg/kg/injection, schedule: Q07DX003 (ip), vehicle: saline, higher = longer survival): 87 % of control
T/C (endpoint: median survival time, dose: 39.0 mg/kg/injection, schedule: Q01DX001 (sc), vehicle: saline, higher = longer survival): 185 % of control
T/C (endpoint: median survival time, dose: 39.0 mg/kg/injection, schedule: Q07DX003 (ip), vehicle: saline, higher = longer survival): 120 % of control
T/C (endpoint: median survival time, dose: 65.0 mg/kg/injection, schedule: Q01DX001 (ip), vehicle: saline, higher = longer survival): 34 % of control
T/C (endpoint: median survival time, dose: 65.0 mg/kg/injection, schedule: Q01DX001 (sc), vehicle: saline, higher = longer survival): 191 % of control
T/C (endpoint: median survival time, dose: 108.0 mg/kg/injection, schedule: Q01DX001 (ip), vehicle: saline, higher = longer survival): 25 % of control
T/C (endpoint: median survival time, dose: 108.0 mg/kg/injection, schedule: Q01DX001 (sc), vehicle: saline, higher = longer survival): 166 % of control
